How the values were obtained:
[1] = test system: Angiotensin II (rabbit aortic vessel); assay: Angiotensin II-antagonizing activity (rabbit aortic vessel); conditions: AII 4×10^-9 M, 15 min treatment
Method: Angiotensin II (briefly, AII)-antagonizing activity of the compound (I) of this invention (rabbit aortic vessel)
The method of preparing the aortic vessel specimens and the reaction conditions employed were as described in European Journal of Pharmacology 18, 316 (1972). AII was used in a concentration of 4×10^-9 M, and the change in isometric tension of the untreated vessel specimen was measured as control. As a test, the vessel was treated with the test compound for 15 minutes and a similar determination was made. The two results were compared and the inhibition rate was calculated by means of the following formula.
Inhibition rate (%) [formula]

rats = assay: Diuretic action in rats (method of W. L. Lipschitz); format: in vivo; conditions: rat, 30 mg/kg P.O., n = 6; control group = 1.00
Method: (§1) The test was conducted in rats and dogs, in accordance with the method of W. L. Lipschitz. The numerals in the table denote the values for the treated groups with the value for control group being taken as 1.00. [formula]

dogs = assay: Diuretic action in dogs (method of W. L. Lipschitz); format: in vivo; conditions: dog, n = 3, control group = 1.00
Method: as §1

[2] = test system: dogs with renal hypertension; assay: Antihypertensive action in dogs with renal hypertension; format: in vivo, beagle dog; conditions: dose 10 mg, oral; for Diastolic blood pressure after 1 hr. / Systolic blood pressure after 1 hr.: 1 hr after administration; for Diastolic blood pressure after 2 hrs. / Systolic blood pressure after 2 hrs.: 2 hrs after administration; for Diastolic blood pressure after 4 hrs. / Systolic blood pressure after 4 hrs.: 4 hrs after administration; for Diastolic blood pressure after 8 hrs. / Systolic blood pressure after 8 hrs.: 8 hrs after administration; for Diastolic blood pressure before administration / Systolic blood pressure before administration: before administration (baseline)
Excerpt: Antihypertensive action in dogs with renal hypertension
Male adult beagle dogs were laparotomized under pentobarbital anesthesia and the left renal artery was constricted with a silver clip so as to reduce the renal blood flow to about 30%. After the operation, the animals were kept for at least 2 months and the individuals having a systolic pressure of at least about 180 mmHg were used in the test. […] Blood pressure determinations were made using a plethysmograph (Narco, DE-300). Each drug was sealed in a gelatin capsule and administered by the oral route. The blood pressure was monitored up to 8 hours after administration.

Row | Compound | Inhibition rate (%) ([1]; concentration of drug 10^-5 M) | Diuretic action UK V (rats) | Diuretic action UNa V (rats) | Diuretic action UV (rats) | Diuretic action UK V (dogs; 3 mg/kg P.O.) | Diuretic action UNa V (dogs; 3 mg/kg P.O.) | Diuretic action UV (dogs; 3 mg/kg P.O.) | Diuretic action UK V (dogs; 30 mg/kg P.O.) | Diuretic action UNa V (dogs; 30 mg/kg P.O.) | Diuretic action UV (dogs; 30 mg/kg P.O.) | Diastolic blood pressure after 1 hr. [2] | Systolic blood pressure after 1 hr. [2] | Diastolic blood pressure after 2 hrs. [2] | Systolic blood pressure after 2 hrs. [2] | Diastolic blood pressure after 4 hrs. [2] | Systolic blood pressure after 4 hrs. [2] | Diastolic blood pressure after 8 hrs. [2] | Systolic blood pressure after 8 hrs. [2] | Diastolic blood pressure before administration [2] | Systolic blood pressure before administration [2] | further results
1 | O=C(O)Cc1c(Cl)nc(-c2ccccc2)n1Cc1ccc(O)cc1 [4-Chloro-1-(4-hydroxybenzyl)-2-phenylimidazole-5-acetic acid, reference compound] | 46% |  |  |  |  |  |  |  |  |  |  |  |  |  |  |  |  |  |  |  | 
2 | CCCC(=O)Oc1ccc(Cn2c(-c3ccccc3)nc(Cl)c2CC(=O)O)cc1C [Ref. Example 4, 4-chloro-1-(4-n-butyryloxy-3-methylbenzyl)-2-phenylimidazole-5-acetic acid] |  | 2.80 | 5.82 | 6.69 |  |  |  |  |  |  |  |  |  |  |  |  |  |  |  |  | 
3 | CC(=O)Oc1ccc(Cn2c(-c3ccccc3)nc(Cl)c2CC(=O)O)cc1C [Ref. Example 3, 4-chloro-1-(4-acetoxy-3-methylbenzyl)-2-phenylimidazole-5-acetic acid] |  | 2.92 | 6.54 | 8.22 |  |  |  |  |  |  |  |  |  |  |  |  |  |  |  |  | 
4 | COc1ccc(Cn2c(-c3ccccc3)nc(Cl)c2CC(=O)O)cc1C [4-Chloro-1-(4-methoxy-3-methylbenzyl)-2-phenylimidazole-5-acetic acid, reference compound] |  | 3.33 | 6.36 | 8.25 | 0.86 | 1.10 | 1.20 | 2.53 | 1.73 | 1.67 | 113 ± 6 mmHg | 185 ± 5 mmHg | 116 ± 7 mmHg | 181 ± 6 mmHg | 115 ± 4 mmHg | 181 ± 2 mmHg | 115 ± 5 mmHg | 188 ± 5 mmHg | 123 ± 6 mmHg | 189 ± 2 mmHg | 
5 | Cc1cc(Cn2c(-c3ccccc3)nc(Cl)c2CC(=O)O)ccc1O [Example 1, 4-chloro-1-(4-hydroxy-3-methylbenzyl)-2-phenylimidazole-5-acetic acid] | 100% |  |  |  | 2.20 | 2.97 | 3.41 | 4.88 | 4.24 | 5.11 | 123 ± 4 mmHg | 189 ± 5 mmHg | 93 ± 7 mmHg | 165 ± 6 mmHg | 89 ± 7 mmHg | 155 ± 8 mmHg | 110 ± 8 mmHg | 167 ± 8 mmHg | 124 ± 2 mmHg | 201 ± 5 mmHg | Inhibition rate (%) ([1]; concentration of drug 10^-6 M): 75%

Reference: US4582847A, “4-chloro-2-phenylimidazole-5-acetic acid derivatives and use as diuretics and hypotensives” (Takeda Chemical Industries, Ltd., priority 1983, dated 1986)
